From US6984520B1, “Bioassay for thyroid stimulating antibodies” (University of Wales College of Medicine, priority 1997, dated 2006)

Experiments:
[1] = molecular target: T1, human TSH-R (Homo sapiens, UniProt P16473); assay: luminescent bioassay: light output of lulu 1 cells (JP09 CHO cells expressing human TSH-R, transfected with cAMP-luciferase); format: cell-based; conditions: concentration as in row: TSH 1 mU/ml, TSAb (90/672) 10 mlU/ml, Forskolin 10^-5M
T1 construct: a pSVL vector containing the coding region of human TSH-R; expressed in transfected cells; host or cells: CHO-K1 clone JP09 (pSVL-hTSHR), further transfected with cAMP-luciferase to give lulu 1 cells
Procedure: Culture medium for the cells was RPMI; 10% foetal calf serum (FCS); 1% glutamine; 1% pyruvate; 2% penicillin/streptomycin (and 2.5 μg/ml puromycin, when amplifying cells for assay). 96 well plates were seeded with 5×10^4 cells prepared according to Example 1 and cultured overnight (approximately 16 hours) at 37° C. in a water-saturated incubator. They were then cultured for a second night in medium containing 10% charcoal stripped calf serum instead of FCS (available from Gibco). Basal light output was measured, in triplicate wells, in the presence of 100 μl of the medium containing 10% charcoal stripped serum. […] The final result was expressed as relative light units (RLU) obtained by the ratio of standard:basal or test:basal.
Following the incubation period, supernatants were removed from the wells and the cells are washed twice in phosphate buffered saline. Light output was measured using a commercially-available kit from the Promega Corporation, no. […]
The selected clones were cultured overnight in medium with 10% charcoal-stripped calf serum (Sigma) in place of FCS, followed by 4 hours' incubation with varying concentrations of bovine TSH. Light output was measured by luciferase reporter assay (Promega) in a Berthold luminometer. Results were calculated as the ratio of light output in the presence of TSH:light output in the absence of TSH and expressed as relative light units (RLUs). […]

[2] = molecular target: T1, human TSH-R; assay: traditional bioassay: cAMP released into culture medium of lulu 1 cells, measured by RIA; format: cell-based; conditions: NaCl-free Hank's medium, 2 mM IBMX, TSH 1 mU/ml, TSAb (90/672) 10 mlU/ml
Procedure: 44 of the GD sera described above, (35 TBII (TSH-R) positive) and the TSAb standard, were also assayed in a traditional bioassay in which CAMP released into the culture medium was measured by RIA. Lulu 1 were seeded in 96 well plates and the assay was performed in 100 μl/well NaCl-free Hank's medium, containing 2 mM IBMX and 10 μl individual GD or pooled euthyroid serum. CAMP was measured by the CAMP [^3H] assay system (Amersham) as described by Ludgate et al in Exp Clin Endo 100 73–4.

T1 sequence (P16473 21-764): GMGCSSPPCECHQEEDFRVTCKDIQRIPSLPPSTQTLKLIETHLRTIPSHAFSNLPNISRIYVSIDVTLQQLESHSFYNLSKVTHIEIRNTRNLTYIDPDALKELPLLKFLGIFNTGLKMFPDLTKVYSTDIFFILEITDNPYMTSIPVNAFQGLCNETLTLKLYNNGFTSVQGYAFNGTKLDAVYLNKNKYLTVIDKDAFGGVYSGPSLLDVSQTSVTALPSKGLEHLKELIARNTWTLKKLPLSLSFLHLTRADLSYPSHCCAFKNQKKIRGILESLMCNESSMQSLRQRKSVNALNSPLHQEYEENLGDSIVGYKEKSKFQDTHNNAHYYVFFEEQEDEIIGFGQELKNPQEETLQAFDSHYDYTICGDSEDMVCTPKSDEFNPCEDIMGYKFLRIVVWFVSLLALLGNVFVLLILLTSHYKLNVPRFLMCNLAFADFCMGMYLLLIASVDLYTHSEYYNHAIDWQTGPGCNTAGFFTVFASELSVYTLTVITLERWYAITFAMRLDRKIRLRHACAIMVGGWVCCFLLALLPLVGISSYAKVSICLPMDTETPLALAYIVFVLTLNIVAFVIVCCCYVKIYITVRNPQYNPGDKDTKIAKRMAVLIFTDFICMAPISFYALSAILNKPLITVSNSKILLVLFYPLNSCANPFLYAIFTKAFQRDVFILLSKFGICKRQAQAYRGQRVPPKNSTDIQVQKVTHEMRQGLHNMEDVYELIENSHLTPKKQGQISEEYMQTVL

**Q.** Which results are given for thyrotropin [TSH]?
**A.** RLUs (mean luminometer readings (n=3) with background light emission subtracted) [1]: 1293 RLUs; pmole cAMP (mean, n=2) [2]: 9.4 pmol
